According to patent publication US11992497B2 (priority 2021, dated 2024):

Columns and labels:
[1] = Metabolic stability in human intestine microsomes (UDPGA, UGT activity only); format: in vitro ADME; details: human, pooled intestinal microsomes, pH 7.4, 1 μM, 0.5 mg/mL microsomes + alamethicin, UDPGA
Protocol: (§1) The objective of this study was to investigate the stability of the test compound, CBG, in the presence of intestinal microsomes that only have UGT activity and no CYP activity.
(§2) Test compound (1 μM) was incubated with pooled intestinal microsomes at 6 time points over the course of a 60 min assay and the test compound is analyzed by LC-MS/MS.
(§3) The final incubation volume is 500 μL. A minus cofactor control incubation was included for each compound tested where 0.1 M Tris, 5 mM MgCl2 buffer pH 7.4 is added instead of UDPGA (minus UDPGA). Two control compounds were included. All incubations were performed singularly for each test compound.
(§4) Each compound was incubated for 0, 5, 10, 20, 40 and 60 min. The control (minus UDPGA) was incubated for 60 min only. The reactions were stopped by transferring incubate into acetonitrile at the appropriate time points, in a 1:3 ratio. The termination plates were centrifuged at 3,000 rpm for 20 min at 4° C. to precipitate the protein.
(§5) Following protein precipitation, the sample supernatants were combined in cassettes of up to 4 compounds, internal standard was added and samples analysed using Cyprotex generic LC-MS/MS conditions.
(§6) From a plot of ln peak area ratio (compound peak area/internal standard peak area) against time, the gradient of the line was determined. Subsequently, half-life and intrinsic clearance were calculated using the equations below: […]

[2] = system: human intestine microsomes; test: as above; format: in vitro ADME
Protocol: as §1, §2, §3, §4, §5, §6

[3] = system: cryopreserved hepatocytes; test: Hepatocyte stability and metabolite profiling; format: in vitro ADME, minipig; details: minipig hepatocyte samples
Protocol: (§7) The objective of this study was to investigate the stability of the test compound, CBG, in human, rat, dog, mouse, monkey and minipig cryopreserved hepatocytes. Follow-on metabolite profiling was performed.
(§8) CBG was incubated up to 2 hr with cryopreserved hepatocytes. Cryopreserved hepatocytes in suspension were added to test compound in supplemented media following pre-incubation to initiate the reaction and the reactions were stopped by organic solvent at the appropriate time points. The termination plates were centrifuged and sample supernatants were analysed using Cyprotex generic LC MS/MS conditions to generate intrinsic clearance values for CBG. Two control compounds for each species were included in the assay and if the values for these compounds were not within the specified limits the results were rejected and the experiment repeated.
(§9) Following the hepatocyte stability assay the samples were 59tilized for metabolite profiling using suitable high-resolution LC-MS/MS conditions. The 40 and 60 minute human samples, 20 and 120 minute rat samples, 10 and 20 minute dog and monkey samples, 20 and 60 minute mouse samples, and 40 and 120 minute minipig samples were compared against the 0 minute control sample to establish which and how many metabolites were formed. […] No further analysis was carried out with the mouse species.
(§10) The areas and percentages reported for the parent and metabolites were calculated using the XIC data. Metabolite observed at greater than 1% of the total of drug related material are reported. […] For accuracy, a ppm error of less than 5 is desirable; when the response for a metabolite observed is low the ppm error maybe greater than 5. Where a metabolite has been referred to as a potential oxidation it can refer to a potential hydroxylation, epoxidation or oxide formation. Representative collision induced dissociation (CID) mass spectra were obtained for the metabolites found.

[4] = Hepatocyte stability and metabolite profiling; format: in vitro ADME, minipig; details: cryopreserved hepatocytes in suspension; Minipig cryopreserved hepatocytes
Protocol: as §7, §8, §9, §10

CCCCCc1cc(O)c(C/C=C(\C)CCC=C(C)C)c(O)c1 [CBG, cannabigerol]
half-life at 1 µM [1]: 1.57 min
microsomal CLint at 1 µM ([1]; from 0 and 5 minute time points only): 884 µL/min/mg
appearance of CBG-glucoronide (in words) ([2]; CBG incubated with human intestine microsomes): appeared rapidly
Comments: detectability of test compound ([2]; by 10 minutes): Test compound not detectable
disappearance of parent compound (in words) ([2]; incubated with human intestine microsomes): disappeared rapidly
number of metabolites observed [3]: four
half-life [4]: 42.7 min
hepatocyte CLint [4]: 32.5 µL/min/1e6 cells
